# Design: species or system non-human primates (Cyno)
# Conditions: cynomolgus monkey, in vivo
# Experimental: Biotinylated PEG microgels (150 μm diameter) were synthesized by microfluidic cross-linking and functionalized with SA-FasL as previously described (Headon, D M, et al., Nat. Mater. 17:732-739 (2018)). Four diabetic non-human primates (NHP) (FIG. 1B; Tables 1 and 2) underwent transplantation of allogeneic islets (14,800 to 18,700 islet equivalents (IEQ)/kg) mixed with SA-FasL-presenting microgels (150,000 to 200,000 microgels delivering 0.2 mg of SA-FasL) on the omental surface. […]
# At selected time points, intravenous glucose tolerance tests (IVGTT) were performed to assess glucose disposal kinetics and insulin and C-peptide levels. […] Consistent with these metrics of graft function, background levels of insulin and C-peptide were measured in the serum of SA-FasL microgel NHPs after STZ administration but before islet transplant and equivalently low levels were evident post-graft removal (insulin: pre-STZ vs. post-STZ, P<0.0001; post-STZ vs. post-graft removal (PGR), P=0.9998; C-peptide: pre-STZ vs. post-STZ, P=0.0060; post-STZ vs. post-graft removal, P=0.4032) (FIG. 2D). […] SA-FasL protein was detected in the serum of all NHPs as early as 1-day after transplantation ranging from 4-56 ng/mL and decreasing to background levels by days 7-14.
smiles,measurement,value
CO[C@H]1C[C@@H]2CC[C@@H](C)[C@@](O)(O2)C(=O)C(=O)N2CCCC[C@H]2C(=O)O[C@H]([C@H](C)C[C@@H]2CC[C@@H](O)[C@H](OC)C2)CC(=O)[C@H](C)/C=C(\C)[C@@H](O)[C@@H](OC)C(=O)[C@H](C)C[C@H](C)/C=C/C=C/C=C/1C [Sirolimus],Time after discontinuation at which sirolimus levels became undetectable,2 weeks

# Reference: patent US20250312321A1, “TRANSIENT SIROLIMUS WITH FASL MICROGELS” (iTOLERANCE, Inc., priority 2022, published 2025)
